{"source": "patent US20230149377A1", "about": "“PHARMACEUTICAL METHODS” (ELEVAR THERAPEUTICS, INC., priority 2018, published 2023)", "origin": "cited, not measured here", "key": {"[1]": {"conditions": "observed safety issues, approved drugs"}, "[2]": {"conditions": "single dose"}, "[3]": {"conditions": "Phase 1, 46 patients"}, "VEGFR-2": {"target": "VEGFR-2 (Homo sapiens, UniProt P35968)", "sequence (P35968 20-1356, species assumed)": "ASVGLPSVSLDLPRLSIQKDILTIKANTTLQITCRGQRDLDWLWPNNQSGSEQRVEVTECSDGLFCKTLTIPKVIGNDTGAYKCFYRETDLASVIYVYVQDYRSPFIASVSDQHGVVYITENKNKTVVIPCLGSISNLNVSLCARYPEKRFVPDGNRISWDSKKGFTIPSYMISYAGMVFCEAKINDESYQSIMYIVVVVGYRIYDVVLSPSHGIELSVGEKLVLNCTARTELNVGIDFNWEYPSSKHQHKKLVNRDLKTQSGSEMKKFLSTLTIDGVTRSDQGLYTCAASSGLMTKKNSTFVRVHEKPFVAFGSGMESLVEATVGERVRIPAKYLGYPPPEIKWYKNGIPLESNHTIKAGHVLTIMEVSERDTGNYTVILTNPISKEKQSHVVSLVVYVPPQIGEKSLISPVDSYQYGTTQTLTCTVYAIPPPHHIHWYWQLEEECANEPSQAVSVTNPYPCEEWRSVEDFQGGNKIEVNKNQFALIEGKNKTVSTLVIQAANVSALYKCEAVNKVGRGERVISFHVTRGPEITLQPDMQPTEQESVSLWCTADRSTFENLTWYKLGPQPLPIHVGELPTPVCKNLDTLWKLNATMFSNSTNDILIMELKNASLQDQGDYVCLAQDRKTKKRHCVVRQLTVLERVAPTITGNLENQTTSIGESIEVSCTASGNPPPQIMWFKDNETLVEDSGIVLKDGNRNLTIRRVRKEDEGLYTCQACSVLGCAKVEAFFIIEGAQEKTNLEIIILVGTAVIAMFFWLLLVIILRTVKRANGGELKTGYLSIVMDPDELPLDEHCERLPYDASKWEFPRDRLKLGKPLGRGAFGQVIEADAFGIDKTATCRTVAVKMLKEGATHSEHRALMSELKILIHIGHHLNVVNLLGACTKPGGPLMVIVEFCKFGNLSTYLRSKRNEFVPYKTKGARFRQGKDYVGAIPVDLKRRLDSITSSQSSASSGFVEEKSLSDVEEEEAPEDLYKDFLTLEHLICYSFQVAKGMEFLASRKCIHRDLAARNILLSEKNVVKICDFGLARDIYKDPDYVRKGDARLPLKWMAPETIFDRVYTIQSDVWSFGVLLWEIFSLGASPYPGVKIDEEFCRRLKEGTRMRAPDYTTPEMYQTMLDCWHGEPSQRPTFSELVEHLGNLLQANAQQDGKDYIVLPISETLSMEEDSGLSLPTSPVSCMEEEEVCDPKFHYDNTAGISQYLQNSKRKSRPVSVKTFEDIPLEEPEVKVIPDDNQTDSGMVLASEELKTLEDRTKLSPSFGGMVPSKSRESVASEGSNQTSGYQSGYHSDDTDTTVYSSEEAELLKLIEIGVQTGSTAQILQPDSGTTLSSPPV", "conditions": "nonclinical"}, "[4]": {"system": "tumor bearing animal models"}, "[5]": {"conditions": "81 mg rivoceranib dose (100 mg mesylate), healthy volunteers"}, "gastric cancer": {"system": "gastric cancer", "conditions": "Phase 3"}}, "note": "Counter-ions that a name gives are not always drawn."}
{"molecule": "Cc1nc(Nc2ncc(C(=O)Nc3c(C)cccc3Cl)s2)cc(N2CCN(CCO)CC2)n1", "note": "[Dasatinib]", "values": [{"measurement": "Safety Profile: Central nervous system", "setting": "[1]", "result": "R"}, {"measurement": "Safety Profile: Liver/Bile", "setting": "[1]", "result": "R"}, {"measurement": "Safety Profile: Musculoskeletal/bone", "setting": "[1]", "result": "R"}, {"measurement": "Safety Profile: Renal", "setting": "[1]", "result": "R"}]}
{"molecule": "C#Cc1cccc(Nc2ncnc3cc(OCCOC)c(OCCOC)cc23)c1", "note": "[Erlotinib]", "values": [{"measurement": "Safety Profile: Blood/lymph system", "setting": "[1]", "result": "R"}, {"measurement": "Safety Profile: Central nervous system", "setting": "[1]", "result": "R"}, {"measurement": "Safety Profile: Liver/Bile", "setting": "[1]", "result": "R"}]}
{"molecule": "CS(=O)(=O)CCNCc1ccc(-c2ccc3ncnc(Nc4ccc(OCc5cccc(F)c5)c(Cl)c4)c3c2)o1", "note": "[Lapatinib]", "values": [{"measurement": "Safety Profile: Central nervous system", "setting": "[1]", "result": "R"}, {"measurement": "Safety Profile: Heart", "setting": "[1]", "result": "R"}]}
{"molecule": "Cc1cn(-c2cc(NC(=O)c3ccc(C)c(Nc4nccc(-c5cccnc5)n4)c3)cc(C(F)(F)F)c2)cn1", "note": "[Nilotinib]", "values": [{"measurement": "Safety Profile: Central nervous system", "setting": "[1]", "result": "R"}, {"measurement": "Safety Profile: GI", "setting": "[1]", "result": "R"}, {"measurement": "Safety Profile: Musculoskeletal/bone", "setting": "[1]", "result": "R"}, {"measurement": "Safety Profile: Renal", "setting": "[1]", "result": "R"}, {"measurement": "Safety Profile: Vascular", "setting": "[1]", "result": "R"}]}
{"molecule": "Cc1ccc(Nc2nccc(N(C)c3ccc4c(C)n(C)nc4c3)n2)cc1S(N)(=O)=O", "note": "[Pazopanib]", "values": [{"measurement": "Safety Profile: Heart", "setting": "[1]", "result": "R"}]}
{"molecule": "CNC(=O)c1cc(Oc2ccc(NC(=O)Nc3ccc(Cl)c(C(F)(F)F)c3)cc2)ccn1", "note": "[Sorafenib]", "values": [{"measurement": "Safety Profile: Central nervous system", "setting": "[1]", "result": "R"}, {"measurement": "Safety Profile: GI", "setting": "[1]", "result": "R"}, {"measurement": "Safety Profile: Heart", "setting": "[1]", "result": "R"}, {"measurement": "Safety Profile: Liver/Bile", "setting": "[1]", "result": "R"}, {"measurement": "Safety Profile: Lung airways", "setting": "[1]", "result": "R"}, {"measurement": "Safety Profile: Musculoskeletal/bone", "setting": "[1]", "result": "R"}, {"measurement": "Safety Profile: Renal", "setting": "[1]", "result": "R"}]}
{"molecule": "CCN(CC)CCNC(=O)c1c(C)[nH]c(/C=C2\\C(=O)Nc3ccc(F)cc32)c1C", "note": "[Sunitinib]", "values": [{"measurement": "Safety Profile: Central nervous system", "setting": "[1]", "result": "R"}, {"measurement": "Safety Profile: Heart", "setting": "[1]", "result": "R"}, {"measurement": "Safety Profile: Liver/Bile", "setting": "[1]", "result": "R"}]}
{"molecule": "N#CC1(c2ccc(NC(=O)c3cccnc3NCc3ccncc3)cc2)CCCC1", "note": "[rivoceranib mesylate]", "values": [{"measurement": "AUC0-∞ in Chinese and Japanese subjects compared to Caucasian subjects", "setting": "[2]; healthy male", "result": "slightly higher"}, {"measurement": "Cmax in Chinese and Japanese subjects compared to Caucasian subjects", "setting": "[2]; healthy male", "result": "slightly higher"}, {"measurement": "t1/2", "setting": "[2]; similar amongst Caucasian, Japanese and Chinese groups", "result": "7.5 to 8", "unit": "h"}, {"measurement": "maximum tolerated dose", "setting": "[3]", "result": 850, "unit": "mg"}]}
{"molecule": "N#CC1(c2ccc(NC(=O)c3cccnc3NCc3ccncc3)cc2)CCCC1", "note": "[rivoceranib, N-[4-(1-cyanocyclopentyl)phenyl]-2-{[(pyridin-4-yl)methyl]amino} pyridine-3-carboxamide]", "values": [{"measurement": "binding to VEGFR-2", "setting": "VEGFR-2", "result": "selectively binds"}, {"measurement": "side effects in animals", "setting": "[4]; at efficacious doses", "result": "minimal side effects"}, {"measurement": "efficacy in various tumor bearing animal models", "setting": "[4]; nonclinical", "result": "efficacious"}, {"measurement": "Food effects on the bioavailability", "setting": "[5]", "result": "minimal"}, {"measurement": "Grade 3/4 adverse reactions that occurred in more than 2% of patients", "setting": "gastric cancer", "result": "hypertension, HFS, proteinuria, fatigue, anorexia, and elevated aminotransferase"}, {"measurement": "median overall survival (OS) compared to placebo", "setting": "gastric cancer", "result": "prolonged"}, {"measurement": "median progression-free survival (PFS) compared to placebo", "setting": "gastric cancer", "result": "prolonged"}]}
